Assay results from patent US20170333459A1 (priority 2010, published 2017).

Tested on: ectromelia, cowpox, vaccinia, or monkeypox virus
Design: species or system mice
Conditions: mouse, in vivo

## CCCCCCCCCCCCCCCCOCCCOP(=O)(O)CO[C@H](CO)Cn1ccc(N)nc1=O [CMX001, 1-O-hexadecyloxypropyl cidofovir]
  preventing mortality: effective in preventing mortality
